Measurements from patent US20210255193A1, “LYSINE REACTIVE PROBES AND USES THEREOF” (The Scripps Research Institute, priority 2017, published 2021).

What was measured:
Assay in all cases: competitive isoTOP-ABPP
Type in all cases: binding
[1] = target: T1, NAA25 N-alpha-acetyltransferase 25, NatB auxiliary subunit (Homo sapiens, UniProt Q14CX7); conditions: 50 uM, in vitro; for isoTOP-ABPP reactivity ratio at lysine Q14CX7_K575: 231 sol
T1 construct: isoTOP-ABPP experiments performed in cell lysates (in vitro); endogenous in cells; host or cells: soluble proteome of human cancer cell lines (MDA-MB-231; Ramos and Jurkat also prepared)
Method: (§1) In vitro covalent fragment treatment for isoTOP-ABPP. All compounds were made up as solutions in DMSO (100×) and were used at a final concentration of 50 μM for activated esters and 100 μM for guanidinylating agents. For each profiling sample, 0.5 ml of lysate was treated with 5 μl of the 100× compound stock solution or 5 μl of DMSO. Samples were treated with activated esters for
(§2) STP-alkyne labeling and click chemistry. For concentration-dependent reactivity measurements by isoTOP-ABPP, 0.5 ml proteome aliquots were treated at ambient temperature with 1 mM STP-alkyne 1 (5 μl of 100 mM stock in DMSO) and 0.1 mM STP alkyne 1 (5 μl of 10 mM stock in DMSO), respectively. For competitive isoTOP-ABPP, after in vitro fragment treatment (detailed above), the samples were labeled for 1 h at ambient temperature with 0.1 mM STP-alkyne 1 (5 μl of 10 mM stock in DMSO). Samples were conjugated by copper-mediated azide-alkyne cycloaddition (CuAAC) to either the light (1 mM STP-alkyne or fragment treated) or heavy (0.1 mM STP-alkyne or DMSO treated) TEV tags (10 μl of 5 mM stocks in DMSO, final concentration=100 μM) using tris(2-carboxyethyl)phosphine hydrochloride
(§3) R value calculation and processing. The ratios of light and heavy MS1 peaks for each unique peptide were quantified with a CIMAGE software using default parameters (3 MS1 acquisitions per peak and signal to noise threshold set to 2.5). For reactivity measurements by isoTOP-ABPP, the R value was calculated from the ratio of MS1 peak areas, comparing the 1 mM STP alkyne sample (light TEV tag) with the 0.1 mM STP alkyne sample (heavy TEV tag). For competitive isoTOP-ABPP, the R value was calculated from the ratio of MS1 peak areas, comparing the DMSO treated sample (heavy TEV tag) with the compound treated sample (light TEV tag). […] Ratios for unique peptide entries are calculated for each experiment; overlapping peptides with the same modified lysine (for example, different charge states, MudPIT chromatographic steps or tryptic termini) are grouped together and the median ratio is reported as the final ratio (R). The peptide ratios reported by CIMAGE were further filtered to ensure the removal or correction of low-quality ratios in each individual data set. The quality filters applied were the following: removal of half tryptic peptides; for ratios with high standard deviations from the median (90% of the median or above) the lowest ratio was taken instead of the median; removal of peptides with R=20 and only a single MS2 event triggered during the elution of the parent ion; manual annotation of all the peptides with ratios of 20, removing any peptides with low quality elution profiles that remained after the previous curation steps (only done for competitive isoTOP-ABPP).
(§4) Cross-data processing for fragment screening. For compound treated samples, biological replicates of the same condition were averaged, if the standard deviation was below 60% of the mean; otherwise, for lysines with at least one R value <4 for a particular compound, the lowest value of the ratio set was taken. For lysines, where all R values for a particular compound were ≥4, the average was reported. For peptides containing several possible modified lysines, the lysine with the highest number of quantification events was used for analysis and the remaining, redundant peptides were reported as alternative modification sites. Peptides included in the aggregate dataset (those used for further bioinformatics and statistical analyses) were required to have been quantified in 2 experiments for competitive isoTOP-ABPP. Lysines were categorized as liganded, if they had at least one ratio R≥4 (hit fragments). For liganded lysines with R=20 for all liganding events, lysines were required to have been quantified with R=20 in two separate experiments and were further required to have been quantified with R<20 in one additional experiment.

[2] = target: T2, UCHL5 Ubiquitin carboxyl-terminal hydrolase isozyme L5 (Homo sapiens, UniProt Q9Y5K5); conditions: for isoTOP-ABPP reactivity ratio at lysine Q9Y5K5_K323 / isoTOP-ABPP ratio (R) at liganded lysine Q9Y5K5_K323: 50 uM, in vitro; for isoTOP-ABPP reactivity ratio at lysine Q9Y5K5_K323: 231 sol; for isoTOP-ABPP ratio (R) at liganded lysine Q9Y5K5_K323: sol, 231
T2 construct: endogenous in cells; host or cells: MDA-MB-231 (soluble fraction of lysate)
T2 sequence (Q9Y5K5 1-329): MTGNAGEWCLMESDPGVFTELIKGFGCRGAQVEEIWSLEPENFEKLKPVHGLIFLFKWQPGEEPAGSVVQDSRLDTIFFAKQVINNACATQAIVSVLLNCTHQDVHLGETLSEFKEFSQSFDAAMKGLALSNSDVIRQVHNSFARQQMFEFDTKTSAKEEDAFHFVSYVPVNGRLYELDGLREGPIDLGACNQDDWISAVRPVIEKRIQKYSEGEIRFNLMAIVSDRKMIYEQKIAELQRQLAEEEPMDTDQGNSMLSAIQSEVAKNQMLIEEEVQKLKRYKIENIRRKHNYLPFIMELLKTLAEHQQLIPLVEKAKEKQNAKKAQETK
Method: as §1, §2, §3, §4

[3] = target: T3, ERAP1 Endoplasmic reticulum aminopeptidase 1 (Homo sapiens, UniProt Q9NZ08); conditions: for isoTOP-ABPP ratio (R) at liganded lysine Q9NZ08_K685: sol, 231
T3 construct: endogenous in cells; host or cells: MDA-MB-231 lysate
Method: as §1, §2, §3, §4

LMNA Prelamin-A/C = target: T4, LMNA Prelamin-A/C (Homo sapiens, UniProt P02545); conditions: for isoTOP-ABPP ratio (R) at liganded lysine P02545_K135: sol, 231
T4 construct: isoTOP-ABPP experiments performed in cell lysates (in vitro); endogenous in cells; host or cells: MDA-MB-231 soluble lysate
T4 sequence (P02545 1-664): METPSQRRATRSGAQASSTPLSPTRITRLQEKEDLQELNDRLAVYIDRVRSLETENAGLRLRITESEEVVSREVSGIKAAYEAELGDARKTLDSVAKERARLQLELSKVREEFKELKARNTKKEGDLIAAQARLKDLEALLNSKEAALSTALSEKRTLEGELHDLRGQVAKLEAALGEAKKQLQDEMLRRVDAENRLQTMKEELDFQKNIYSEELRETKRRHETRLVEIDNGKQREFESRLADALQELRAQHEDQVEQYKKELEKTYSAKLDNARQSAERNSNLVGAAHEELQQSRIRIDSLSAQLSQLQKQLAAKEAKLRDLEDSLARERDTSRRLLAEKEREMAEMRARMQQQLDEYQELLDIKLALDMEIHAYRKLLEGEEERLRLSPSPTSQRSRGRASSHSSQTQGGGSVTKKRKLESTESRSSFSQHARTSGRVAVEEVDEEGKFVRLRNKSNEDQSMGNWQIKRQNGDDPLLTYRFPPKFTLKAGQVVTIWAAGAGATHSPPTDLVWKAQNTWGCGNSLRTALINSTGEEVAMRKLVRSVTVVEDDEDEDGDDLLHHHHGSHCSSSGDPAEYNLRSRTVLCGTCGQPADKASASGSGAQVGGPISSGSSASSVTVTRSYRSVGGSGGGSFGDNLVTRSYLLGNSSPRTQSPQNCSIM
Method: as §1, §2, §3, §4

T1 sequence (Q14CX7 whole entry): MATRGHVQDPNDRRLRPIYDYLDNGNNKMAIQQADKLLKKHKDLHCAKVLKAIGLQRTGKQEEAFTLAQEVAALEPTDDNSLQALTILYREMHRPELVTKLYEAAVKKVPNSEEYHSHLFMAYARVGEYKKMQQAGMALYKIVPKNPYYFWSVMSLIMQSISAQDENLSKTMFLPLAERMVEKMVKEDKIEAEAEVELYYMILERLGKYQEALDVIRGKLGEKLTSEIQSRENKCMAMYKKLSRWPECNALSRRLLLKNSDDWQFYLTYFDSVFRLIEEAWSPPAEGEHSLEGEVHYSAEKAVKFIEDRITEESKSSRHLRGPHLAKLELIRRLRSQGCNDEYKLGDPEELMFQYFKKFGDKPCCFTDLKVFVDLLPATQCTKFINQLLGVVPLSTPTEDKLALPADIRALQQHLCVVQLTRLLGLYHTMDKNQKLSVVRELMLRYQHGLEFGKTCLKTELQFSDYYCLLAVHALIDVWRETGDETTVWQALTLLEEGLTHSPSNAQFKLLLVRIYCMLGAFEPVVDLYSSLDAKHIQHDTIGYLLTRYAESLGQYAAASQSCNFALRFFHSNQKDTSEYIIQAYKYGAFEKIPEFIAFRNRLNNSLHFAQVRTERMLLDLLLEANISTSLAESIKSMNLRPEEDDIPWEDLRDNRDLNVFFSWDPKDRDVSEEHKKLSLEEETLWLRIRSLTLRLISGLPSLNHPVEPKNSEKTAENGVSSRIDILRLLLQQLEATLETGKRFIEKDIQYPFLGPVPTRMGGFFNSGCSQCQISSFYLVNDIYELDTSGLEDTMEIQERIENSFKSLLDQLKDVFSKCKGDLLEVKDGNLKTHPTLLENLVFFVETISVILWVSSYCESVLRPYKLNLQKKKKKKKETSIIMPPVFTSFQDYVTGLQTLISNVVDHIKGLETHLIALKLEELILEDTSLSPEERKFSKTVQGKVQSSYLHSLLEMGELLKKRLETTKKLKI
T3 sequence (Q9NZ08 whole entry): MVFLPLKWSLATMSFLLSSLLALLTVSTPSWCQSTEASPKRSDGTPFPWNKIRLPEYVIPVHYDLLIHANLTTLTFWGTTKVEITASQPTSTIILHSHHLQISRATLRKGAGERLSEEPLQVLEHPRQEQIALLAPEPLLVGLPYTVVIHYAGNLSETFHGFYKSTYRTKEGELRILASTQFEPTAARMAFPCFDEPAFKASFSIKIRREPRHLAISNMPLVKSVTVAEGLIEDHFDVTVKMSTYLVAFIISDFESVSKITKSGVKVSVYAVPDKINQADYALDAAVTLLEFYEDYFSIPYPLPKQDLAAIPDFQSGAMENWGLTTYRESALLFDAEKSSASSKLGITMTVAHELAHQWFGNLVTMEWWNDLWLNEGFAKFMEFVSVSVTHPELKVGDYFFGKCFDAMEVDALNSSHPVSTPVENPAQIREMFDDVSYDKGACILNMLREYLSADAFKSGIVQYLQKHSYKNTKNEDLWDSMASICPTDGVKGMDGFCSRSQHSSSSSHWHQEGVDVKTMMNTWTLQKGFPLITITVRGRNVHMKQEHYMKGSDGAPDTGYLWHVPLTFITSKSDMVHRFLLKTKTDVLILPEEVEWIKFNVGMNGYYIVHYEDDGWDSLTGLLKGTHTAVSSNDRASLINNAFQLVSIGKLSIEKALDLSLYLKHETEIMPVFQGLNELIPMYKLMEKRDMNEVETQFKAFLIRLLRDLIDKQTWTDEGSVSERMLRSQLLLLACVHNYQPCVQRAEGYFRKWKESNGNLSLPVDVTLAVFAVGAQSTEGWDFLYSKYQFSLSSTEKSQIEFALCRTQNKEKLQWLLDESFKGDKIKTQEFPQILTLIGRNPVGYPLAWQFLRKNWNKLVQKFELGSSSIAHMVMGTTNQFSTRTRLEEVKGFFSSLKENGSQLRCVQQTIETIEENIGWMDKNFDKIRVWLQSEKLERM

SMILES | isoTOP-ABPP reactivity ratio at lysine Q14CX7_K575 [1] | isoTOP-ABPP reactivity ratio at lysine Q9Y5K5_K323 [2] | isoTOP-ABPP reactivity ratio at lysine Q9NZ08_K685 ([3]; 50 uM, 231 sol, in vitro) | isoTOP-ABPP ratio (R) at liganded lysine P02545_K135 (LMNA Prelamin-A/C; 50 uM, in vitro) | isoTOP-ABPP ratio (R) at liganded lysine Q9Y5K5_K323 [2] | further results
O=C(CN1C(=O)c2ccccc2C1=O)Oc1c(F)c(F)c(F)c(F)c1F [fragment 27, Pentafluorophenyl 2-(1,3-dioxoisoindolin-2-yl)acetate] | 1.4 | 1.1 | 5.7 |  |  | 
CC(=O)Oc1ccc([N+](=O)[O-])cc1[N+](=O)[O-] [fragment 43, 2,4-Dinitrophenyl acetate] |  |  |  | 20.0 | 1.0 | isoTOP-ABPP ratio (R) at liganded lysine Q9NZ08_K685 ([3]; 50 uM, in vitro): 1.1
CC(C)(C)OC(=O)N=C(NC(=O)OC(C)(C)C)n1cccn1 [fragment 50, reference compound] |  |  |  |  |  | isoTOP-ABPP ratio, lysine P02545_K135 (LMNA Prelamin-A/C; 100 uM_231_sol_in vitro): 1.3; isoTOP-ABPP ratio, lysine Q9Y5K5_K323 ([2]; 100 uM_231_sol_in vitro): 2.2; isoTOP-ABPP ratio, lysine Q9NZ08_K685 ([3]; 100 uM_231_sol_in vitro): 20.0
O=C(Oc1ccc([N+](=O)[O-])cc1[N+](=O)[O-])c1ccc2ccccc2n1 [fragment 35, 2,4-Dinitrophenyl quinoline-2-carboxylate] |  |  |  | 0.7 | 1.0 | isoTOP-ABPP ratio (R) at liganded lysine Q14CX7_K575 ([1]; sol, 231): 0.9
CCn1cc(C(=O)Oc2c(F)c(F)c(F)c(F)c2F)c(=O)c2ccc(C)nc21 [fragment 28, Pentafluorophenyl 1-ethyl-7-methyl-4-oxo-1,4-dihydro-1,8-naphthyridine-3-carboxylate] | 0.8 | 1.2 | 1.4 |  |  | 
CC(C)(C)OC(=O)NCCCC(=O)Oc1ccc([N+](=O)[O-])cc1[N+](=O)[O-] [fragment 41, 2,4-Dinitrophenyl 4-((tert-butoxycarbonyl)amino)butanoate] |  |  |  | 1.1 | 1.0 | isoTOP-ABPP ratio (R) at liganded lysine Q9NZ08_K685 ([3]; 50 uM, in vitro): 1.3
O=C(Oc1c(F)c(F)c(F)c(F)c1F)C1CCN(C(=O)OCc2ccccc2)CC1 [fragment 24, 1-Benzyl 4-(pentafluorophenyl) piperidine-1,4-dicarboxylate] | 1.1 | 0.8 | 1.6 |  |  | 
O=C(Oc1c(F)c(F)c(F)c(F)c1F)c1ccc2ccccc2n1 [fragment 25, Pentafluorophenyl quinoline-2-carboxylate] | 0.9 |  | 1.9 |  |  | isoTOP-ABPP reactivity ratio at lysine P02545_K135 (LMNA Prelamin-A/C; 50 uM, 231 sol, in vitro): 0.9
COc1cc(CCC(=O)Oc2c(F)c(F)c(F)c(F)c2F)cc(OC)c1OC [fragment 23, Pentafluorophenyl 3-(3,4,5-trimethoxyphenyl)propanoate] |  |  |  |  |  | R value (DMSO/fragment) for probe 1 labeling (LMNA Prelamin-A/C; P02545_K135, 50 uM, 231 sol, in vitro): 0.9; R value (DMSO/fragment) for probe 1 labeling ([3]; Q9NZ08_K685, 50 uM, 231 sol, in vitro): 1.7
